Measurements published in the supplement of paper PMC10307832.

Columns and labels:
Experiment in all cases: relative viability (nuclei count vs DMSO), 5 days (fraction); higher = more cells survive
[1] = compound: CC1=C(N=C(N=C1N)[C@H](CC(=O)N)NC[C@@H](C(=O)N)N)C(=O)N[C@@H]([C@H](C2=CN=CN2)OC3C(C(C(C(O3)CO)O)O)OC4C(C(C(C(O4)CO)O)OC(=O)N)O)C(=O)N[C@H](C)[C@H]([C@H](C)C(=O)N[C@@H]([C@@H](C)O)C(=O)NCCC5=NC(=CS5)C6=NC(=CS6)C(=O)NCCC[S+](C)C)O [Bleomycin] + COc1cccc2cc(-c3nc([C@H]4CC[C@H](C(=O)O)CC4)n4ncnc(N)c34)[nH]c12 [OSI-027] (partner 0.5 µM); settings: main component drawn
Outline: (§1)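 Five library-drug doses in √10 steps were combined with a fixed anchor-drug dose, or a single drug was given alone, by pin tool to lung cancer cell lines in 1536-well plates the day after seeding. Nuclei were stained and counted after 5 days. Relative viability is the nuclei count in treated wells over that in vehicle wells, taken as the median of duplicate plates.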

[2] = compound: CC1=C(N=C(N=C1N)[C@H](CC(=O)N)NC[C@@H](C(=O)N)N)C(=O)N[C@@H]([C@H](C2=CN=CN2)OC3C(C(C(C(O3)CO)O)O)OC4C(C(C(C(O4)CO)O)OC(=O)N)O)C(=O)N[C@H](C)[C@H]([C@H](C)C(=O)N[C@@H]([C@@H](C)O)C(=O)NCCC5=NC(=CS5)C6=NC(=CS6)C(=O)NCCC[S+](C)C)O [Bleomycin] + C[C@@H](Oc1cc(-c2cnn(C3CCNCC3)c2)cnc1N)c1c(Cl)ccc(F)c1Cl [Crizotinib] (partner 1 µM); settings: main component drawn
Outline: as §1

[3] = compound: CC1=C(N=C(N=C1N)[C@H](CC(=O)N)NC[C@@H](C(=O)N)N)C(=O)N[C@@H]([C@H](C2=CN=CN2)OC3C(C(C(C(O3)CO)O)O)OC4C(C(C(C(O4)CO)O)OC(=O)N)O)C(=O)N[C@H](C)[C@H]([C@H](C)C(=O)N[C@@H]([C@@H](C)O)C(=O)NCCC5=NC(=CS5)C6=NC(=CS6)C(=O)NCCC[S+](C)C)O [Bleomycin] + Nc1ncn([C@H]2C[C@H](O)[C@@H](CO)O2)c(=O)n1 [Decitabine] (partner 2 µM); settings: main component drawn
Outline: as §1

[4] = compound: COc1cc([C@@H]2c3cc4c(cc3[C@@H](O[C@@H]3O[C@@H]5CO[C@@H](C)O[C@H]5[C@H](O)[C@H]3O)[C@H]3COC(=O)[C@H]23)OCO4)cc(OC)c1O [Etoposide] + COc1cccc2cc(-c3nc([C@H]4CC[C@H](C(=O)O)CC4)n4ncnc(N)c34)[nH]c12 [OSI-027] (partner 0.5 µM)
Outline: as §1

Cell Line | relative viability ([1]; first compound 0.01 µM) | relative viability ([1]; first compound 0.03162 µM) | relative viability ([1]; first compound 0.1 µM) | relative viability ([1]; first compound 0.3162 µM) | relative viability ([1]; first compound 1 µM) | relative viability ([2]; first compound 0.01 µM) | relative viability ([2]; first compound 0.03162 µM) | relative viability ([2]; first compound 0.1 µM) | relative viability ([2]; first compound 0.3162 µM) | relative viability ([2]; first compound 1 µM) | relative viability ([3]; first compound 0.01 µM) | relative viability ([3]; first compound 0.03162 µM) | relative viability ([3]; first compound 0.1 µM) | relative viability ([3]; first compound 0.3162 µM) | relative viability ([3]; first compound 1 µM) | relative viability ([4]; first compound 0.01 µM) | relative viability ([4]; first compound 0.03162 µM) | relative viability ([4]; first compound 0.1 µM) | relative viability ([4]; first compound 0.3162 µM) | relative viability ([4]; first compound 1 µM)
NCI-H1975 | 0.566 | 0.638 | 0.435 | 0.153 | 0.132 | 0.774 | 0.693 | 0.662 | 0.319 | 0.241 | 0.327 | 0.437 | 0.291 | 0.209 | 0.177 | 0.733 | 0.975 | 0.594 | 0.748 | 0.27
CAL-12T | 0.551 | 0.465 | 0.389 | 0.21 | 0.174 | 0.356 | 0.405 | 0.25 | 0.15 | 0.192 |  |  |  |  |  | 0.527 | 0.603 | 0.339 | 0.555 | 0.199
NCI-H1623 | 0.406 | 0.432 | 0.464 | 0.363 | 0.322 |  |  |  |  |  |  |  |  |  |  | 0.438 | 0.497 | 0.386 | 0.413 | 0.322
HCC-44 | 0.279 | 0.38 | 0.248 | 0.205 | 0.175 | 0.484 | 0.256 | 0.223 | 0.152 | 0.138 | 0.773 | 0.795 | 0.693 | 0.396 | 0.407 | 0.625 | 0.524 | 0.52 | 0.505 | 0.294
EKVX | 0.636 | 0.711 | 0.598 | 0.398 | 0.387 | 0.87 | 0.803 | 0.7 | 0.448 | 0.316 | 0.311 | 0.323 | 0.279 | 0.215 | 0.215 | 0.694 | 0.651 | 0.429 | 0.617 | 0.364
NCI-H1651 | 0.671 | 0.524 | 0.551 | 0.323 | 0.186 | 0.787 | 0.772 | 0.754 | 0.448 | 0.358 | 0.619 | 0.461 | 0.477 | 0.333 | 0.192 | 0.591 | 0.641 | 0.438 | 0.44 | 0.155
NCI-H1944 | 0.279 | 0.278 | 0.224 | 0.179 | 0.151 | 0.544 | 0.565 | 0.432 | 0.237 | 0.186 | 0.365 | 0.321 | 0.275 | 0.252 | 0.159 | 0.417 | 0.52 | 0.344 | 0.294 | 0.205
NCI-H1703 |  |  |  |  |  | 0.751 | 0.655 | 0.676 | 0.322 | 0.195 |  |  |  |  |  |  |  |  |  | 
Calu-6 |  |  |  |  |  | 0.514 | 0.394 | 0.379 | 0.141 | 0.181 |  |  |  |  |  |  |  |  |  | 
EBC-1 |  |  |  |  |  | 0.204 | 0.193 | 0.2 | 0.198 | 0.151 |  |  |  |  |  |  |  |  |  | 
A-427 | 0.332 | 0.439 | 0.34 | 0.187 | 0.144 | 0.738 | 0.776 | 0.67 | 0.402 | 0.223 | 0.429 | 0.495 | 0.406 | 0.29 | 0.266 | 0.472 | 0.486 | 0.43 | 0.396 | 0.212
NCI-H2405 | 0.617 | 0.596 | 0.567 | 0.477 | 0.346 | 0.695 | 0.8 | 0.713 | 0.45 | 0.372 | 0.648 | 0.655 | 0.61 | 0.433 | 0.309 | 0.637 | 0.671 | 0.49 | 0.612 | 0.462
NCI-H1355 | 0.459 | 0.416 | 0.427 | 0.258 | 0.194 | 0.948 | 1.03 | 0.926 | 0.538 | 0.298 | 0.319 | 0.341 | 0.371 | 0.314 | 0.2 | 0.383 | 0.396 | 0.3 | 0.345 | 0.219
NCI-H358 | 0.73 | 0.67 | 0.662 | 0.335 | 0.185 | 0.484 | 0.486 | 0.514 | 0.29 | 0.263 | 0.198 | 0.271 | 0.189 | 0.172 | 0.152 | 0.711 | 0.757 | 0.366 | 0.136 | 0.0875
RERF-LC-KJ | 0.378 | 0.364 | 0.314 | 0.244 | 0.239 | 0.541 | 0.513 | 0.421 | 0.23 | 0.197 | 0.418 | 0.478 | 0.336 | 0.213 | 0.145 | 0.529 | 0.615 | 0.382 | 0.613 | 0.429
NCI-H23 | 0.361 | 0.401 | 0.272 | 0.141 | 0.145 | 0.249 | 0.231 | 0.251 | 0.162 | 0.153 | 0.307 | 0.265 | 0.235 | 0.184 | 0.177 | 0.754 | 0.609 | 0.406 | 0.542 | 0.207
HOP-62 | 0.383 | 0.498 | 0.333 | 0.184 | 0.127 | 0.531 | 0.477 | 0.325 | 0.144 | 0.106 | 0.157 | 0.197 | 0.137 | 0.154 | 0.118 | 0.802 | 0.882 | 0.521 | 0.696 | 0.523
